In publication PMC6264316, “The Triterpenes 3β-Lup-20(29)-en-3-ol and 3β-Lup-20(29)-en-3-yl Acetate and the Carbohydrate 1,2,3,4,5,6-Hexa-O-acetyl-dulcitol as Photosynthesis Light Reactions Inhibitors” (Molecules, 2011):

Assays:
[1] = biological target: T1, isolated CF1 (Ca2+-ATPase) (Spinacia oleracea, UniProt P00825+P06450); assay: Ca2+-ATPase activity, released Pi; assay type: biochemical; conditions: read-out: Ca^2+-ATPase (%)
T1 construct: gene atpB
Excerpt: Ca2+-ATPase activity, released Pi on isolated CF1 (Ca2+-ATPase)

[2] = biological target: T2, Mg2+-ATPase bound to thylakoid membrane (membrane-bound CF1; H+-ATPase) (Spinacia oleracea, UniProt P00825+P06450); assay: light-triggered Mg2+-ATPase activity in thylakoids, released Pi; assay type: biochemical; conditions: read-out: Mg^2+-ATPase (%)
T2 construct: gene atpB; with ATP synthase subunit a, chloroplastic; ATP synthase subunit b, chloroplastic; ATP synthase subunit b', chloroplastic; ATP synthase subunit c, chloroplastic
Excerpt: light-triggered Mg2+-ATPase activity in thylakoids, released Pi on Mg2+-ATPase bound to thylakoid membrane (membrane-bound CF1; H+-ATPase)

T1 sequence (P00825 whole entry): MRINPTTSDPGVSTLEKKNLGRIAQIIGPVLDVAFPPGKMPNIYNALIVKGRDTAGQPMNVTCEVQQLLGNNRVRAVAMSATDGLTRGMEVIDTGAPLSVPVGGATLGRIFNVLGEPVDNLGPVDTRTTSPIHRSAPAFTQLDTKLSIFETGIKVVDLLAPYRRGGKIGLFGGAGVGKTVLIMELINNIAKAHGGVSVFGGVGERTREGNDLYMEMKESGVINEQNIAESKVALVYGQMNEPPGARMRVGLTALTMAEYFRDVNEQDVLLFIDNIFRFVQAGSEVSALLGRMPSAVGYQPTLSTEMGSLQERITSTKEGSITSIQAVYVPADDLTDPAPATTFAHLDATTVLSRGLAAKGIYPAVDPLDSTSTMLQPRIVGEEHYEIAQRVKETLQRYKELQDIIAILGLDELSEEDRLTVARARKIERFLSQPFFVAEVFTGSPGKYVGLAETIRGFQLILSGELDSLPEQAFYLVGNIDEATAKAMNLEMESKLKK
T1 sequence (P06450 whole entry): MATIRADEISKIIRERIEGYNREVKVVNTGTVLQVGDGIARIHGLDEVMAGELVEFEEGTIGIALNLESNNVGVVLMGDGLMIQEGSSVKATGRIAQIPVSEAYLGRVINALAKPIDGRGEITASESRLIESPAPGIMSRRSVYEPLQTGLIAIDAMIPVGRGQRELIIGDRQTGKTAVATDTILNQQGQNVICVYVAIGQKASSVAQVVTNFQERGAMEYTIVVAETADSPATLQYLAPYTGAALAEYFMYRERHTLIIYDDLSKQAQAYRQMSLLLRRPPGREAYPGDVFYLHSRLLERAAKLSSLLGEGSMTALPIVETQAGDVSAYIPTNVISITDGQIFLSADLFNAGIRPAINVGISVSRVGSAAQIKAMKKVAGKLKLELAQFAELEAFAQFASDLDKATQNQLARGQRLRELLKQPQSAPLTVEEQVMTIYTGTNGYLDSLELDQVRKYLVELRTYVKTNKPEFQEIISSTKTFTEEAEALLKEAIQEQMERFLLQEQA
T1 sequence (P05435 42-364 partner): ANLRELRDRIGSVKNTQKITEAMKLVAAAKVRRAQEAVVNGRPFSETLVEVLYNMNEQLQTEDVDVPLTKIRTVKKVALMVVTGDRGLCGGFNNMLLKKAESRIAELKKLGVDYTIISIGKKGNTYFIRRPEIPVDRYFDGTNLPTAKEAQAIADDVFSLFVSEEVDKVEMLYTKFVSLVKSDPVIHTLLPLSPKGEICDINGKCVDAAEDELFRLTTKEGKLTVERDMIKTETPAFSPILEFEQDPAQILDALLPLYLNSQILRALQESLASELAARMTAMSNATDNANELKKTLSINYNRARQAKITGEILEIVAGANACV
T1 sequence (P11402 71-257 partner): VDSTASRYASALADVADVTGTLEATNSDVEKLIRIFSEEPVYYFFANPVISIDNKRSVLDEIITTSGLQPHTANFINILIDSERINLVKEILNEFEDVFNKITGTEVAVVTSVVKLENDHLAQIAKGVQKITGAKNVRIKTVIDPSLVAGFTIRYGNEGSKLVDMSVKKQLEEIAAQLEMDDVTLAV
T1 sequence (P00833 whole entry partner): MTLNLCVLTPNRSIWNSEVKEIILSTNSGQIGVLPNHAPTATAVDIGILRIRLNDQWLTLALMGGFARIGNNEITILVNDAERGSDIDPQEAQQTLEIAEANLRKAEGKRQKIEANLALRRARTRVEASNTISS

activity at 300 µM [1]: 179%
activity at 100 µM [2]: 65%
Compound: C=C(C)[C@@H]1CC[C@]2(C)CC[C@]3(C)[C@H](CC[C@@H]4[C@@]5(C)CC[C@H](O)C(C)(C)[C@@H]5CC[C@]43C)[C@@H]12 [compound 1, 3β-Lup-20(29)-en-3-ol]
